The test deals with 922993-354-T-J3-PDC complex spheroids, viability, % test/control. The experiment in a line: Anticancer human tumor 922993-354-T-J3-PDC patient-derived endometrial carcinoma cell line growth inhibition [CLK]. To be noted: for viability, T/C: stronger effect = lower value. An excerpt:
A high-throughput screen of multi-cell type tumor spheroids was designed to identify active combinations of […] and targeted small molecules. Complex spheroids include a stromal component modeled by human endothelial cells (HUVEC) and fibroblasts modeled by human mesenchymal stem cells (MSCs). The concentration ranges selected for each drug and investigational agent were based upon clinically achievable concentrations if the clinical Cmax of the agent was known.
Compounds. The drugs and investigational agents: cirtuvivint (SM08502; NSC835563), CC-671 (NSC850746), vemurafenib (NSC761431), tapotoclax (NSC804041), sotorasib (NSC818433), adagrasib (NSC831453), MRTX-1133 (NSC836407), BAY2416964 (NSC825713), copanlisib (NSC816437), inavolisib (NSC800729), abemaciclib (NSC768073), osimertinib (NSC779217), entinostat (NSC756642), eltanexor (KPT-8602, NSC794443), venetoclax (NSC766270), ceralasertib (NSC777638), bortezomib (NSC756655), olaparib (NSC753686), talazoparib (NSC767125), alisertib (NSC759677), peposertib (NSC802822), gemcitabine (NSC613327), 5-fluorouracil (NSC19893), SN-38 (NSC673596), oxaliplatin (NSC266046), paclitaxel (NSC125973), and doxorubicin (NSC123127), were obtained from the National Cancer Institute (NCI) Developmental Therapeutics Program Chemical Repository. The FDA-approved anticancer drug set is available from the Developmental Therapeutics Program at https://dtp.cancer.gov/organization/dscb/obtaining/available plates.htm. […] The stock solutions were prepared in dimethyl sulfoxide (DMSO, Sigma-Aldrich, St. Louis, MO, cat. D2650), except for the platinum complexes which were prepared in saline (Quality Biological, Gaithersburg, MD, cat. 114-055-101), at 800-fold the tested concentration and stored at -70 degrees C prior to their use. All drugs and investigational agents were tested over a range starting from a high concentration at or near the clinical Cmax and decreasing in half-log increments. If the clinical Cmax for an agent had not been determined, the highest concentration tested was 10 microM.
Cell Culture. All cells were maintained in an incubator at 37 degrees C and 5% CO2 with 95% humidity. The PDC lines were cultured according to standard operating procedures established by the NCI PDMR. Briefly, all PDCs were thawed and cultured in Matrigel-coated flasks prepared with a working solution of 1X Ham's F-12 nutrient mix, without supplementation (Invitrogen, Waltham, MA, cat. 11765054), 100 U/mL penicillin-streptomycin (Invitrogen, cat. 15140122), and 2.5% Matrigel (Corning Inc., Corning, NY, cat. 354248) for the first three passages. The 947758-054-R-J2-PDC line was cultured in 6B/Colon 1A media, which includes advanced DMEM/F-12 (Thermo Fisher Scientific, cat. 12634028), 10 mM HEPES (Thermo Fisher Scientific, cat. 15630080), 1X GlutaMAX supplement (Thermo Fisher Scientific, cat. 35050061), 0.1 mg/mL primocin (InvivoGen, cat. ant-pm-2), 10% defined fetal bovine serum, heat inactivated (HyClone Laboratories Inc., cat. SH30070.03HI), 1.25 mM N-Acetyl-L-cysteine (Sigma-Aldrich, cat. A9165), 10 mM nicotinamide (Sigma-Aldrich, cat. N0636), 1X B-27 supplement (Thermo Fisher Scientific, cat. 17504044), 1X N-2 supplement (Thermo Fisher Scientific, cat. 17502048), and 10 microM Y-27632 dihydrochloride (Tocris Bioscience, cat. 1254). The 876862-298-R-J1-PDC was cultured in 6E media, which includes all 6B/Colon 1A media components plus 50% L-WRN conditioned media (ATCC, cat. CRL-3276), 50 ng/mL recombinant human EGF recombinant protein (hEGF; Thermo Fisher Scientific, cat. PHG0311), 10 ng/mL recombinant human fibroblast growth factor 10 (hGFG-10; PeproTech, cat. 100-26), 1 ng/mL recombinant human fibroblast growth factor 2 (hFGF-2; PeproTech, cat. 100-18B), and 1 µM prostaglandin E2 (PGE2; Tocris, cat. 2296). The 227483-062-R1-J1-PDC line was cultured in Panc media, containing all 6E components except hFGF-2, with the addition of 500 nM SB-431542 (Selleckchem, cat. S1067) and 10 nM gastrin (Tocris, cat. 3006). […]

The structures appear in SMILES notation. Values joined by “and” are separate entries in the source; they are usually repeats but may differ in a detail not shown here. Equal values may be shown once.

What is called viability, T/C is the result in the treated group divided by that in the control group, in per cent. For orientation: IC50 means the concentration that gives 50% inhibition.
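Further: spheroids exposed to the agents for 7 days before readout.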

In the case of `C#Cc1c(F)ccc2cc(O)cc(-c3ncc4c(N5CC6CCC(C5)N6)nc(OCC56CCCN5CC(F)C6)nc4c3F)c12` (stereo not drawn), the viability, T/C by setting is: (compound 0.0316 µM) 99.4% and 98.9%; (compound 0.1 µM) 82% and 83%; (compound 0.316 µM) 95.2% and 109%; (compound 1 µM) 93% and 94%; (compound 3.16 µM) 98.1% and 104%; (compound 10 µM) 95.9% and 101%. The concentration for half-maximal inhibition (IC50) (curve of compound) is greater than 10 µM.
Take `C=C(F)C(=O)N1CCN(c2nc(OCC3CCCN3C)nc3c2CCN(c2cccc4cccc(Cl)c24)C3)CC1CC#N` (stereo not drawn): the viability, T/C is, setting by setting: (compound 0.0316 µM) 96.9% and 91.5%; (compound 0.1 µM) 97.8% and 100%; (compound 0.316 µM) 93.3% and 104%; (compound 1 µM) 91.2% and 92%; (compound 3.16 µM) 79.4% and 67.9%; (compound 10 µM) 2.9% and 0.21%. In addition, under “curve of compound”, the IC50 is 4.9 µM and 4.28 µM.
As to `C=CC(=O)N1CCN(c2nc(=O)n(-c3c(C)ccnc3C(C)C)c3nc(-c4c(O)cccc4F)c(F)cc23)C(C)C1` (stereo not drawn), the viability, T/C (compound 0.0316 µM) is 101% and 104%; the viability, T/C (compound 0.1 µM) is 94.5% and 105%; the viability, T/C (compound 0.316 µM) is 104% and 92%; the viability, T/C (compound 1 µM) is 105% and 99.2%; the viability, T/C (compound 3.16 µM) is 92.5% and 111%; the viability, T/C (compound 10 µM) is 93% and 93.6%. The half-maximal inhibitory concentration (IC50) (curve of compound) was greater than 10 µM.
For the molecule `CC(=O)O[C@H]1C(=O)[C@@]2(C)[C@H]([C@H](OC(=O)c3ccccc3)[C@]3(O)C[C@H](OC(=O)[C@H](O)[C@@H](NC(=O)c4ccccc4)c4ccccc4)C(C)=C1C3(C)C)[C@]1(OC(C)=O)CO[C@@H]1C[C@@H]2O`, the viability, T/C reads like this: (compound 0.0316 µM) 105% and 92.5%; (compound 0.1 µM) 79% and 115%; (compound 0.316 µM) 84% and 85.9%; (compound 1 µM) 95.6% and 88.3%; (compound 3.16 µM) 52.7% and 71.6%; (compound 10 µM) 37.1% and 40.2%. Further, the half-maximal inhibitory concentration (IC50) (curve of compound) was 3.86 µM and 6.98 µM.
Take `CC(CO)NC(=O)c1cc(-c2ccc(Cl)cc2)nn(-c2cnn(C)c2)c1=O` (stereo not drawn): the viability, T/C was 107% and 97.1% (compound 0.0316 µM); 106% and 87.2% (compound 0.1 µM); 98% and 86% (compound 0.316 µM); 97.1% and 81.7% (compound 1 µM); 102% and 95.1% (compound 3.16 µM); 74.8% and 64.1% (compound 10 µM). For the setting “curve of compound”, the IC50 is greater than 10 µM.
Consider `CC(Nc1ccc2c(c1)OCCn1cc(N3C(=O)OCC3C(F)F)nc1-2)C(N)=O` (stereo not drawn), for which the viability, T/C runs as follows: (compound 0.0316 µM) 115% and 99.3%; (compound 0.1 µM) 107% and 93.8%; (compound 0.316 µM) 84.6% and 77.5%; (compound 1 µM) 73.1% and 70.7%; (compound 3.16 µM) 28.4% and 49%; (compound 10 µM) 22.1% and 34.3%. Further, the half-maximal inhibitory concentration (IC50) (curve of compound) was 1.79 µM and 3.33 µM.
`CC1(C)CCC(CN2CCN(c3ccc(C(=O)NS(=O)(=O)c4ccc(NCC5CCOCC5)c([N+](=O)[O-])c4)c(Oc4cnc5[nH]ccc5c4)c3)CC2)=C(c2ccc(Cl)cc2)C1`: the viability, T/C is, setting by setting: (compound 0.0316 µM) 96.7% and 84.1%; (compound 0.1 µM) 90.2% and 99.4%; (compound 0.316 µM) 110% and 101%; (compound 1 µM) 123% and 95.5%; (compound 3.16 µM) 85.6% and 121%; (compound 10 µM) 36.7% and 82.9%. Besides, where the note is “curve of compound”, the IC50 is 7.31 µM and > 10 µM.
For `CC1COCCN1c1cc(C2(S(C)(=N)=O)CC2)nc(-c2ccnc3[nH]ccc23)n1` (stereo not drawn), the viability, T/C by setting is: (compound 0.0316 µM) 101% and 91.8%; (compound 0.1 µM) 118% and 86.8%; (compound 0.316 µM) 130% and 91.7%; (compound 1 µM) 90.4% and 102%; (compound 3.16 µM) 108% and 94.2%; (compound 10 µM) 68.6% and 78.2%. Moreover, the 50% inhibitory concentration (IC50) (curve of compound) is greater than 10 µM.
`CN1CCN(c2cc(C(=O)Nc3cc4cc(-c5cnn(C)c5)ccc4cn3)ccn2)CC1`: the viability, T/C runs as follows: (compound 0.1 µM) 97.6% [middle of 12 runs]; (compound 1 µM) 1.97% [middle of 12 runs]; (compound 3.16 µM) 0.81% [middle of 12 runs]; (compound 10 µM) 0.24% [middle of 12 runs]. Further, the IC50 (compound alone, run of 09/18/2023) was 266 nM [middle of 12 runs].
For `COc1ccc([C@@H](O)c2cc(-c3ncnc4cc(N5CCOCC5)ccc34)c(F)cc2Cl)nn1`, the viability, T/C was 87.2% and 87.1% (compound 0.0316 µM); 104% and 94.9% (compound 0.1 µM); 87.7% and 98.9% (compound 0.316 µM); 113% and 98.2% (compound 1 µM); 85.8% and 117% (compound 3.16 µM); 82.8% and 89.9% (compound 10 µM). Also, where the note is “curve of compound”, the concentration for half-maximal inhibition (IC50) is greater than 10 µM.
As to `COc1cccc2c1C(=O)c1c(O)c3c(c(O)c1C2=O)CC(O)(C(=O)CO)CC3OC1CC(N)C(O)C(C)O1` (stereo not drawn), the viability, T/C is, setting by setting: (compound 0.0316 µM) 92.5% and 100%; (compound 0.1 µM) 97.2% and 86%; (compound 0.316 µM) 91.5% and 102%; (compound 1 µM) 63.7% and 75.1%; (compound 3.16 µM) 38.8% and 41.3%; (compound 10 µM) 13.7% and 21.8%. Further, the half-inhibitory concentration (IC50) (curve of compound) is 1.91 µM and 2.33 µM.
Take `Nc1ccccc1NC(=O)c1ccc(CNC(=O)OCc2cccnc2)cc1`: the viability, T/C (compound 0.0316 µM) was 105% and 111%; the viability, T/C (compound 0.1 µM) is 71.8% and 85.9%; the viability, T/C (compound 0.316 µM) is 95.8% and 95.2%; the viability, T/C (compound 1 µM) is 71.8% and 81.7%; the viability, T/C (compound 3.16 µM) is 64.9% and 70.1%; the viability, T/C (compound 10 µM) was 53.4% and 55.2%. In addition, the IC50 (curve of compound) is greater than 10 µM.
On to `Nc1ccn(C2OC(CO)C(O)C2(F)F)c(=O)n1` (stereo not drawn), for which the viability, T/C (compound 0.0316 µM) is 15.9% and 15.4%; the viability, T/C (compound 0.1 µM) is 17.1% and 18.3%; the viability, T/C (compound 0.316 µM) was 15.5% and 15.6%; the viability, T/C (compound 1 µM) is 15.6% and 16.5%; the viability, T/C (compound 3.16 µM) is 15.1% and 13.7%; the viability, T/C (compound 10 µM) is 13.5% and 14.2%. The IC50 (curve of compound) was less than 0.0316 µM.
Turning to `O=C(c1cc(Cc2n[nH]c(=O)c3ccccc23)ccc1F)N1CCN(C(=O)C2CC2)CC1`, the viability, T/C is 81.9% and 98.5% (compound 0.0316 µM); 91.4% and 88.5% (compound 0.1 µM); 85.5% and 102% (compound 0.316 µM); 93% and 118% (compound 1 µM); 96.8% and 107% (compound 3.16 µM); 83.2% and 100% (compound 10 µM). In addition, the IC50 (curve of compound) was greater than 10 µM.
As to `O=c1[nH]cc(F)c(=O)[nH]1`, the viability, T/C was 102% and 101% (compound 0.0316 µM); 95.8% and 97.9% (compound 0.1 µM); 86.8% and 93.4% (compound 0.316 µM); 104% and 115% (compound 1 µM); 38% and 60.7% (compound 3.16 µM); 26.7% and 35.1% (compound 10 µM). In addition, the IC50 (curve of compound) is 2.51 µM and 5.11 µM.

These data come from PubChem BioAssay AID2060606 (Molecular Pharmacology Branch, DTP, NCI, 2025).
